Assays:
[1] = biological target: T1, wild-type mouse Pgp (MDR3) (Mus musculus, UniProt P21447)
Procedure: (§1) Overexpression of wild-type mouse Pgp (MDR3) was achieved by using genetically engineered strains of Pichia pastoris with a 6X histidine tag. The cells were cultured in glycerol media, and methanol was used to induce the overexpression of Pgp at the Bioexpression and Fermentation Facility (BFF), University of Georgia, Athens, GA, USA. A repeated cycle of freezing using liquid nitrogen, blending, and thawing was used to lyse the Pgp-expressing P. pastoris cells. The protein was purified using affinity chromatography with nickel-nitrilotriacetic acid (Ni-NTA) resin (Thermo Fisher Scientific, Waltham, MA, USA). DDM was used to solubilize the protein, and the solution was concentrated using Amicon Ultra-15 100 kDa cut-off filters (EMD Millipore, Billerica, MA, USA). The concentration of purified protein was measured at 280 nm using a calculated extinction coefficient of 1.28 per mg mL^−1 on a Nanodrop (DeNovix, Wilmington, DE, USA). […] The purified DDM-solubilized Pgp was aliquoted and stored at −80 °C for future analysis.
(§2) Approximately 40 µL of DDM-solubilized Pgp was dialyzed for two hours against HEPES buffer (20 mM HEPES, 100 mM NaCl, 5 mM MgCl2, 2 mM DTT, pH 7.4) to remove any remnants of the detergent, DDM. The dialyzed protein was mixed with 4 mg mL^−1 of the extruded liposomes and incubated on ice for at least one hour to allow Pgp to integrate into the liposomes. To remove any additional detergent and further facilitate Pgp integration into the liposome, the solution was dialyzed for a second time for two hours in HEPES buffer to form proteoliposomes, and the concentration of Pgp reconstituted in liposomes was determined using the Bio-Rad DC Protein assay. Finally, the solution was aliquoted and stored at −80 °C for future use.
Acrylamide, an aqueous collisional quencher, can be used to determine the changes in conformation upon Pgp-drug interaction. The principle of this technique is that as the drug interacts with the protein, the conformation of the accessible tryptophan residues in the protein also changes, resulting in a shift in fluorescence intensity. For this experiment, to measure the fluorescence of Pgp reconstituted in liposomes, in the presence (250 µM) or absence of drug(s), the excitation and emission wavelengths used were 295 nm and 330 nm, respectively. The proteoliposomes were diluted to a final concentration of 1 µM in Chifflet buffer (pH 7.4) containing 2 mM DTT, and it was titrated against an increasing concentration of acrylamide. A concentration of 11 µM N-acetyl-L-tryptophanamide (NATA), an analog of tryptophan, was used as a positive control to determine non-specific quenching. A saturated concentration of AMPPNP (3.2 mM), a non-hydrolysable form of ATP, was used to generate an outward-open conformation of Pgp. All the experiments for acrylamide quenching were performed at 21 °C. To correct the fluorescence intensities for background, dilution, and inner filter effects, […] was used. A Stern–Volmer plot was constructed with F0(corrected)/F(corrected) versus acrylamide concentration. The slope of the curve determined the degree of quenching, and it was related to the Stern–Volmer constant (Ksv) by Equation (4), as follows:(4) Focorrected/Fcorrected=1+KsvQ where F0(corrected)/F(corrected) = Stern–Volmer plot; Ksv = Stern–Volmer constant; and [Q] = acrylamide concentration.

[2] = biological target: T1, wild-type mouse Pgp (MDR3); assay: biochemical
Procedure: as §1, §2
The intrinsic tryptophan residues in the protein can be selectively excited and emitted at 295 nm and 330 nm wavelengths, respectively. The binding of the drug to the protein can alter the spatial arrangement encountered by the tryptophan residue(s) and thereby regulate the fluorescence intensity of the protein [52]. […] Proteoliposomes diluted to 1 µM in Chifflet buffer containing 2 mM DTT were titrated against varying concentrations of drugs. The intrinsic protein fluorescence was measured at 330 nm upon excitation at 295 nm using an Olis DM 45 spectrophotometer (Olis Corporation, Bogart, GA, USA). To nullify the effect of Rayleigh bands on the observed spectra, a 10 nm band-pass filter was inserted on the excitation and emission paths of the spectrophotometer. The drug-induced quenching of intrinsic Pgp fluorescence was corrected (Fcorrected) for factors such as dilution, background fluorescence, and inner filter effects using the equation mentioned below (Equation (2)).(2) Fcorrected=F−B10^εexbex+εembemQ/2 where Fcorrected = Drug-induced quenching of intrinsic Pgp fluorescence; F = Emitted intrinsic Pgp fluorescence at 330 nm; [Q] = Concentration of drug; εex and εem = Excitation and emission extinction coefficients, respectively; bex and bem = Path lengths of excitation (0.4 mm) and emission (10 mm) wavelengths, respectively; and B = Background fluorescence measured from drug and solvent.
The resulting quenching curves were fit using a modified Stern-Volmer equation (Equation (3)), as follows:(3) Fcorrected=FOcorrected/1+KsvQ+Funquenched where Fcorrected = The corrected fluorescence; F0(corrected) = Fluorescence recorded in the absence of drug; [Q] = Concentration of drug; Ksv = Stern–Volmer constant; and F(unquenched) = unquenched fluorescence.

[3] = biological target: T1, wild-type mouse Pgp (MDR3); conditions: mouse, not told, pH 7.4
Description: The STDD NMR technique is a robust method used to characterize the interaction between a drug and receptor protein [36, 86]. This technique utilizes a saturated low-strength radio frequency (RF) to selectively excite the receptor protein. […] Due to the localization of Pgp, most of its substrates are lipophilic, resulting in a probable non-specific interaction between its substrates and liposomes in the observed STD NMR spectrum. Therefore, STD NMR of liposomes in the presence of drugs was performed. The resulting spectrum was subtracted from the ^1H STD NMR spectrum obtained from the drug in the presence of proteoliposome (Pgp reconstituted into liposome) to achieve a saturation transfer double-difference (STDD) NMR spectrum, which nullified the STD observations of the drugs in the presence of liposomes.
This technique was performed as previously described. […] The NMR tubes with the sample were centrifuged at 3000× g for 5 min. To suppress the background signals caused by water, a tailored gradient pulse sequence known as water suppression by gradient-tailored excitation (WATERGATE) was also included. A train of 50 ms Gaussian-shaped selective pulses was used to selectively excite and saturate Pgp for two seconds, and a relaxation delay of five seconds was also used. The STD NMR spectra for both the control and the samples were obtained through phase cycling, where the Pgp irradiation resonance was alternated between 1.5 ppm and 42 ppm on and off resonance, respectively, for 512 scans, creating the ^1H NMR spectrum.
For this experiment, the NMR studies were performed on a Bruker Avance NEO 800 MHz NMR spectrometer with a 1.7 mm TCI H{CN} probe at 25 °C. The STD NMR data generated were analyzed using iNMR software (Nucleomatic, Molfetta, Italy), Igor Pro 6.2, and Mnova 14.2.0 (Mastrelab Research S.L., Santiago de Compostela, Spain).

T1 sequence (P21447 whole entry): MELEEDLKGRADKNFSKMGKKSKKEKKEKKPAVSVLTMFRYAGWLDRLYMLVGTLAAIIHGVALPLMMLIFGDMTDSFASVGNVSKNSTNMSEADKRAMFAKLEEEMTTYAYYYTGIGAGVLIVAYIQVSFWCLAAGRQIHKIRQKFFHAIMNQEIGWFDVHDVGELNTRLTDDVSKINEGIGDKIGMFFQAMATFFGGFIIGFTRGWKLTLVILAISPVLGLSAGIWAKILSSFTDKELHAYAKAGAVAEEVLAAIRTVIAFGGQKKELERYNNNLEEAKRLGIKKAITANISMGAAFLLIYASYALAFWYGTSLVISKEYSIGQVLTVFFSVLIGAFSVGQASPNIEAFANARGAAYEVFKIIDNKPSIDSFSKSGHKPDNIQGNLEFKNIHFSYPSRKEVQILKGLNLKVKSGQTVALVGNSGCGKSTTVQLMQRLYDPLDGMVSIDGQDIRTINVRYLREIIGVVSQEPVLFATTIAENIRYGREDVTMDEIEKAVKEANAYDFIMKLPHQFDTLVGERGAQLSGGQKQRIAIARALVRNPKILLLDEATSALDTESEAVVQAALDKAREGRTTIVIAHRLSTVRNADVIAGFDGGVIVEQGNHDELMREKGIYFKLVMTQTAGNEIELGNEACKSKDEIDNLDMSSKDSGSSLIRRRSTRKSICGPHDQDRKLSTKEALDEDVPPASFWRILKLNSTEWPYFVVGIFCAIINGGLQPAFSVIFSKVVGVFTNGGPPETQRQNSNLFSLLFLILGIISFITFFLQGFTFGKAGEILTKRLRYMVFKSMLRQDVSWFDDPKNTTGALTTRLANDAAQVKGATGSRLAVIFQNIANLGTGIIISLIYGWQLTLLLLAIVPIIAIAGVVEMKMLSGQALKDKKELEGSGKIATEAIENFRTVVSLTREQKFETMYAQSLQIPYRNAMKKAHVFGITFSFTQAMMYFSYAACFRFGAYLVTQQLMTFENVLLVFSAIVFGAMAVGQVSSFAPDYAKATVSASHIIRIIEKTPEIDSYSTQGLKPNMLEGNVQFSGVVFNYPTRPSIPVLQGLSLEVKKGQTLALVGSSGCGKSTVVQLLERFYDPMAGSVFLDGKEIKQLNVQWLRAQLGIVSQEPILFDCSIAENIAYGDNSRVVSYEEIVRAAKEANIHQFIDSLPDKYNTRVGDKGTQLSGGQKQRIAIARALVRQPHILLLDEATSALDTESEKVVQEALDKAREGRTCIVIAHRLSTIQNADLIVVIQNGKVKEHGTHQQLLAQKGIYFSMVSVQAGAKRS

Row | Compound | Ksv of Pgp (acrylamide quenching) in the presence of AMPPNP alone [1] [M⁻¹] | Pgp conformation upon drug binding in the absence of a nucleotide [1] | Kd [2] [µM] | Interaction (Region/Group) Pgp (STDD-NMR Data) [3]
1 | Nc1ncnc2c1ncn2[C@@H]1O[C@H](COP(=O)([O-])OP(=O)([O-])NP(=O)([O-])[O-])[C@@H](O)[C@H]1O.[Li+].[Li+].[Li+].[Li+] [AMPPNP, Adenosine 5′-(β,γ-imido) triphosphate lithium salt] | 1.6 ± 0.01 | – | – | –
2 | C[C@H]1O[C@@H](O[C@H]2[C@@H](O)C[C@H](O[C@H]3[C@@H](O)C[C@H](O[C@H]4CC[C@@]5(C)[C@H](CC[C@@H]6[C@@H]5CC[C@]5(C)[C@@H](C7=CC(=O)OC7)CC[C@]65O)C4)O[C@@H]3C)O[C@@H]2C)C[C@H](O)[C@@H]1O [Digitoxin] | – | intermediate | 16.7 ± 4.44 | Protons on C3,C17, C18, C19 of steroid; C22 of lactone; C3,C5,C6 of sugar

From PMC12386283, “Elucidating the Complex Structural and Molecular Mechanisms Driving P-Glycoprotein-Mediated Transport of Cardiac Glycosides” (International Journal of Molecular Sciences, 2025)
